Converted amounts (≈) assume the structure as drawn. Read-outs that look alike come from different tables or passages of the source.
What was measured:
[1] = Azithromycin levels in skin (follicular biopsy); type: in vivo, human; settings: for Skin Concentration (median): follicular biopsy
Method: Standardized follicular biopsy samples, representative of the pilosebaceous unit of the skin, were obtained from the upper back from each of the subjects of Example 1 on study days 0, 21, 42, and 70. The samples were analyzed to determine the tissue level of azithromycin in each biopsy sample.

acne [2] = settings: 500 mg/day for 4 days in four cycles every 10 days; Gruber 1998; cited from earlier work
Streptococcus pyogenes = settings: Neu 1991; cited from earlier work
inflammatory acne = settings: 250 mg three times per week, cited from earlier work
[3] = Azithromycin levels in plasma; settings: for average azithromycin plasma level at steady state: steady state conditions; for AUC / AUC(0-t) / Cmax: human, plasma, po
Method: Plasma levels of azithromycin were determined as follows. Thirty-nine patients were randomized into one of three treatment groups. Each patient received 40 mg (n=13), 80 mg (n=11), or 120 mg (n=15) of oral azithromycin daily. After the initial dose on day 0, a second dose was not administered until 72 hours later, so as to permit measurement of plasma levels based on a single dose and determination of pharmacokinetic parameters. Blood samples from each patient were taken at times equal to 0 (before dosing), 1, 2, 3, 4, 6, 8, 24, 48, and 72 hours after the initial oral dose. Following 72 hours, each patient received azithromycin daily for the remainder of six weeks (42 days). Blood samples were also taken at times equal to 0 hours (before dosing) and 3 hours after dosing on day 21, and at times equal to 0, 1, 2, 3, 4, 6, 8, and 24 hours following the last dose given on day 42. Plasma samples obtained from the blood samples were stored at −20° C. or lower after collection until processing and analysis.
The amount of azithromycin in plasma was quantified using a validated high pressure liquid chromatographic assay with mass spectroscopy detection. Standards and samples were treated, by pipet addition, with 10.0 microliter of 1:1 acetonitrile/water. The standards and samples were then treated, by pipet addition, with 10.0 microliter of an Azaerythromycin A internal standard solution, followed by the addition of 2.0 mL of the mobile phase, which contained a 250:150:100:0.5:0.1 mixture of ethyl acetate, methanol, acetonitrile, formic acid and morpholine. After tightening Teflon caps onto the extraction jars containing the treated standards and samples, the jars were rotated for 2 hours at 1 rps. Next, 0.20 mL aliquots were removed from each jar and transferred to HPLC autosampler vials, and the vials capped and placed in the autosampler tray for LC-MS-MS analysis. A 5 microliter aliquot was injected from each vial into a suitable high pressure liquid chromatograph (HPLC) with suitable mass spectrophotometry-mass spectrometery detection, such as a Sciex API 3000 LC-MS-MS (GenTech Scientific, Inc., Arcade, N.Y.) with heated nebulizer source. The column used was PVA-Sil, 5 micron, 4.0×50 mm cartridge (Waters Corporation, Milford, Mass.). The flow rate was 1 ml/minute. To determine the amount of azithromycin, the peak area of the m/z 750→592 azithromycin product ion was measured against the peak area of the m/z 736→578 azaerythromycin A internal standard product ion.
Plasma azithromycin concentrations were tabulated for each of the subjects for each dose group 40 mg/day, 80 mg/day, and 120 mg/day, respectively. The pharmacokinetic evaluation was based on individual plasma concentration-time data of azithromycin and was performed using model-independent analysis methods within WinNonlin™ version 5.0.1 (Pharsight Corporation, Mountain View, Calif.). […] Cmax, the maximum plasma concentration, was obtained directly from the concentration-time data. AUClast, the area under the plasma concentration-time curve from time 0 to time t (the time of last quantifiable plasma concentration), was calculated using the linear trapezoidal rule from predose to the last quantifiable plasma concentration. AUC24, the area under the plasma concentration-time curve from time 0 to time t=24 hours, was calculated in a manner similar to the calculation for AUClast except from predose to 24 hours.

P. acnes = settings: concentration that inhibits 90% of growth of the organism; Neu 1991; cited from earlier work
acne [4] = settings: Kus 2005, cited from earlier work

CC[C@H]1OC(=O)[C@H](C)[C@@H](O[C@H]2C[C@@](C)(OC)[C@@H](O)[C@H](C)O2)[C@H](C)[C@@H](O[C@@H]2O[C@H](C)C[C@H](N(C)C)[C@H]2O)[C@](C)(O)C[C@@H](C)CN(C)[C@H](C)[C@@H](O)[C@]1(C)O [Azithromycin, 9-deoxo-9a-aza-9a-methyl-9a-homoerythromycin A]
clearance of azithromycin from the pilosebaceous apparatus ([1]; after attaining saturation or near saturation levels): more than 28 days | Skin Concentration (median) ([1]; 40 mg/day, Day 0): 0.00 ng/sample | Skin Concentration (median) ([1]; 40 mg/day, Day 21): 0.34 ng/sample | Skin Concentration (median) ([1]; 40 mg/day, Day 42): 0.59 ng/sample | Skin Concentration (median) ([1]; 40 mg/day, Day 70 (28 days after last dose)): 0.00 ng/sample | Skin Concentration (median) ([1]; 80 mg/day, Day 0): 0.00 ng/sample | Skin Concentration (median) ([1]; 80 mg/day, Day 21): 1.34 ng/sample | Skin Concentration (median) ([1]; 80 mg/day, Day 42): 1.68 ng/sample | Skin Concentration (median) ([1]; 80 mg/day, Day 70 (28 days after last dose)): 0.47 ng/sample | Skin Concentration (median) ([1]; 120 mg/day, Day 0): 0.00 ng/sample | Skin Concentration (median) ([1]; 120 mg/day, Day 21): 1.65 ng/sample | Skin Concentration (median) ([1]; 120 mg/day, Day 42): 1.99 ng/sample | Skin Concentration (median) ([1]; 120 mg/day, Day 70 (28 days after last dose)): 0.50 ng/sample | time to effective steady state level of azithromycin in skin ([1]; low doses, following commencement of therapy, no initial spike dose): ≤ 20 days | dosage at which the skin becomes saturated, theorized from the data ([1]; theorized from Table 3 data): about 95 mg/day | efficacy in the treatment of acne (acne [2]): efficacious | gastrointestinal side effect rate (acne [2]): about 10% | MIC90 against Streptococcus pyogenes (Streptococcus pyogenes): 0.12 µg/mL (≈ 0.16 µM) | cases of gastrointestinal discomfort (inflammatory acne; 21 subjects): 3 cases | cases of vaginitis (inflammatory acne; 21 subjects): one | subjects who experienced side effects (inflammatory acne; 21 subjects): 19% | efficacy in treating lesions of inflammatory acne (inflammatory acne; Fernandez-Obregon 2000): as effective as other antibiotics tested | average maximum azithromycin plasma level ([3]; 40 mg/day group, after administration on day 42): about 16 ng/ml | average maximum azithromycin plasma level ([3]; 40 mg/day group, after initial dose): about 15 ng/ml | average azithromycin plasma level at steady state ([3]; 40 mg/day group): about 4 ng/ml | average maximum azithromycin plasma level ([3]; 80 mg/day group, after administration on day 42): ~54 ng/mL | average maximum azithromycin plasma level ([3]; 80 mg/day group, after initial dose): ~59 ng/mL | average azithromycin plasma level at steady state ([3]; 80 mg/day group): ~10 ng/mL | average maximum azithromycin plasma level ([3]; 120 mg/day group, after administration on day 42): ~68 ng/mL | average maximum azithromycin plasma level ([3]; 120 mg/day group, after initial dose): ~45 ng/mL | average azithromycin plasma level at steady state ([3]; 120 mg/day group): ~22 ng/mL | maximum plasma concentration compared with MIC ([3]; day 0 and day 42, all dosages tested): less than the MIC of azithromycin for P. acnes | AUC ([3]; 40 mg): 44.7 ng·h/mL | AUC(0-t) ([3]; 40 mg): 73.4 ng·h/mL | Cmax ([3]; 40 mg): 7.08 ng/mL | AUC ([3]; 40 mg/day): 132 ng·h/mL | Cmax ([3]; 40 mg/day): 13.8 ng/mL | AUC ([3]; 80 mg): 294 ng·h/mL | AUC(0-t) ([3]; 80 mg): 456 ng·h/mL | Cmax ([3]; 80 mg): 60.3 ng/mL | AUC ([3]; 80 mg/day): 528 ng·h/mL | Cmax ([3]; 80 mg/day): 53.9 ng/mL | AUC ([3]; 120 mg): 293 ng·h/mL | AUC(0-t) ([3]; 120 mg): 433 ng·h/mL | Cmax ([3]; 120 mg): 57.9 ng/mL | AUC ([3]; 120 mg/day): 752 ng·h/mL | Cmax ([3]; 120 mg/day): 92.9 ng/mL | time of peak average plasma level ([3]; post administration of initial dose, each treatment group): 3 h | MIC against P. acnes (P. acnes): 0.15 µg/mL (≈ 0.2 µM) | efficacy in the treatment of acne (acne [4]; 500 mg 3, then 2 consecutive days per week, then once weekly, 4 weeks each): as effective as doxycycline | subjects who left the study due to gastrointestinal side effects (acne [4]; of 25 subjects administered azithromycin): two
